From the SangsterLogP compilation

Experiment: method code SF, from PMID: 3778562
`CCCCCCCCCCCCO[C@H]1Cc2c(O)cc(O)cc2O[C@@H]1c1ccc(O)c(O)c1` showed a logP of 6.79. Molecule `O=c1c(O)c(-c2ccc(O)c(O)c2)oc2cc(O)ccc12` has a logP of 2.53. `COc1cc(OC)c2c(c1)OC(c1ccc(OC)c(OC)c1)C(OC)C2` (configuration not stated) gave a logP of 3.68. For `Oc1cc(O)c2c(c1)OC(c1ccc(O)c(O)c1)C(O)C2O` (configuration not stated), the logP was 0.95. With `O=c1cc(-c2ccc(O)c(O)c2)oc2cccc(O)c12` the logP was 3.31. Work on `O=c1c(O)c(-c2ccc(O)cc2)oc2cc(O)cc(O)c12` yielded a logP of 3.39. For `O=C(O[C@H]1Cc2c(O)cc(O)cc2O[C@@H]1c1ccc(O)c(O)c1)c1ccc(F)cc1`, the logP was 3.64. With `N#CCCO[C@H]1Cc2c(O)cc(O)cc2O[C@@H]1c1ccc(O)c(O)c1` the logP was 0.96. `CCCCCCCCCCCCCCCC(=O)O[C@H]1Cc2c(O)cc(O)cc2O[C@@H]1c1ccc(O)c(O)c1` gave a logP of 8.7. `O=C(O)CCC(=O)O[C@H]1Cc2c(O)cc(O)cc2O[C@@H]1c1ccc(O)c(O)c1` showed a logP of 1.41. `COc1ccc(-c2cc(=O)c3c(O)cc(O[C@@H]4O[C@H](CO[C@@H]5O[C@@H](C)[C@H](O)[C@@H](O)[C@H]5O)[C@@H](O)[C@H](O)[C@H]4O)cc3o2)cc1O` showed a logP of 0.14. In the case of `COc1ccc(-c2oc3cc(O)cc(O)c3c(=O)c2O)cc1`, the logP is reported as 3.97. Work on `O=C(Cc1ccccc1)O[C@H]1Cc2c(O)cc(O)cc2O[C@@H]1c1ccc(O)c(O)c1` yielded a logP of 3.09. In the case of `O=c1cc(-c2ccccc2)oc2cc(O)cc(O)c12`, the logP is reported as 3.52. In the case of `CCCCO[C@H]1Cc2c(O)cc(O)cc2O[C@@H]1c1ccc(O)c(O)c1`, the logP is reported as 2.64. For `CCCCCCCCCC(=O)O[C@H]1Cc2c(O)cc(O)cc2O[C@@H]1c1ccc(O)c(O)c1`, the logP was 5.58. For `CO[C@H]1Cc2c(O)cc(O)cc2O[C@@H]1c1ccc(O)c(O)c1`, the logP was 1. Work on `Cc1cc(C)c2c(c1)O[C@H](c1ccc(C)c(C)c1)[C@@H](O)C2` yielded a logP of 3.1. `O=C(Nc1ccccc1)OC1Cc2c(O)cc(O)cc2OC1c1ccc(O)c(O)c1` (configuration not stated) showed a logP of 3.05. Work on `O=c1cc(-c2ccc(O)cc2)oc2cc(O)cc(O)c12` yielded a logP of 3.02. `Oc1cc(O)c2c(c1)OC(c1ccc(O)c(O)c1)C(OCCCc1ccccc1)C2` (configuration not stated) showed a logP of 3.78. In the case of `CCCCCCCO[C@H]1Cc2c(O)cc(O)cc2O[C@@H]1c1ccc(O)c(O)c1`, the logP is reported as 4.2. Work on `C[C@@H]1O[C@@H](O[C@H]2[C@H](Oc3cc(O)c4c(c3)O[C@H](c3ccc(O)cc3)CC4=O)O[C@H](CO)[C@@H](O)[C@@H]2O)[C@H](O)[C@H](O)[C@H]1O` yielded a logP of -0.44. For `COc1ccc([C@@H]2CC(=O)c3c(O)cc(O)cc3O2)cc1O`, the logP was 2.6. `O=C1C[C@@H](c2ccc(O)c(O)c2)Oc2cccc(O)c21` gave a logP of 2.81. `O=C(O[C@H]1Cc2c(O)cc(O)cc2O[C@@H]1c1ccc(O)c(O)c1)c1ccccc1` showed a logP of 3.44. Work on `CCCC(=O)O[C@H]1Cc2c(O)cc(O)cc2O[C@@H]1c1ccc(O)c(O)c1` yielded a logP of 2.47. `O=c1c(O)c(-c2ccc(O)cc2O)oc2cc(O)cc(O)c12` gave a logP of 2.61. Work on `COc1ccc(-c2cc(=O)c3c(O)cc(O)cc3o2)cc1O` yielded a logP of 3.1. Work on `O=C(OC1Cc2c(O)cc(O)cc2OC1c1ccc(O)c(O)c1)c1ccc(O)c(O)c1` (configuration not stated) yielded a logP of 2.45. `O=c1cc(-c2ccc(O)c(O)c2)oc2cc(O)ccc12` showed a logP of 1.94. `CCCO[C@H]1Cc2c(O)cc(O)cc2O[C@@H]1c1ccc(O)c(O)c1` showed a logP of 2.12. Molecule `O=C1C[C@@H](c2cccc(O)c2)Oc2cc(O)cc(O)c21` has a logP of 2.51. Work on `NCCCOC1Cc2c(O)cc(O)cc2OC1c1ccc(O)c(O)c1` (configuration not stated) yielded a logP of 0.52. Molecule `O=C1C[C@@H](c2ccc(O)c(O)c2)Oc2cc(O)ccc21` has a logP of 1.94. For `COc1ccc(-c2oc3ccccc3c(=O)c2O)cc1OC`, the logP was 4.17. `CCCCCCCCCCCCCCCCCCO[C@H]1Cc2c(O)cc(O)cc2O[C@@H]1c1ccc(O)c(O)c1` gave a logP of 9.91. `CCCCCCCCCCCCCCCCO[C@H]1Cc2c(O)cc(O)cc2O[C@@H]1c1ccc(O)c(O)c1` showed a logP of 8.87. `O=C1C[C@@H](c2ccc(O)cc2)Oc2cc(O[C@H]3O[C@@H](CO)[C@H](O)[C@@H](O)[C@@H]3O)cc(O)c21` showed a logP of -0.44. With `O=c1c(O)c(-c2cccc(O)c2)oc2cc(O)ccc12` the logP was 2.51. In the case of `COc1cc(OC)c2c(c1)O[C@H](c1ccc(OC)c(OC)c1)[C@@H](O)C2`, the logP is reported as 3.1. With `O=C1CC(c2ccc(O)cc2)Oc2cc(O)cc(O)c21` (stereo in doubt) the logP was 2.52. In the case of `O=C1C[C@@H](c2ccc(O)c(O)c2)Oc2cc(O)cc(O)c21`, the logP is reported as 2.02. Work on `O=c1c(O)c(-c2ccc(O)cc2)oc2cc(O)ccc12` yielded a logP of 3.02. Work on `C[C@@H]1O[C@@H](Oc2c(-c3ccc(O)c(O)c3)oc3cc(O)cc(O)c3c2=O)[C@H](O)[C@H](O)[C@H]1O` yielded a logP of 1.78. With `CC(=O)Oc1ccccc1C(=O)OC1Cc2c(O)cc(O)cc2OC1c1ccc(O)c(O)c1` (configuration not stated) the logP was 2.87. Work on `Oc1cc(O)c2c(c1)O[C@@H](c1ccc(O)c(O)c1)C(OCO[C@@H]1Cc3c(O)cc(O)cc3O[C@H]1c1ccc(O)c(O)c1)C2` (some centres not stated) yielded a logP of 2.15.
